The text below walks through data of ChEMBL document CHEMBL1201862, “PubChem BioAssay data set” (2004).

Among the test systems are XF498; HOP-18; DMS-273; KM-20L2; SNB-78; DMS-114; RXF 631; DLD-1.
Common to all, as to assay: NCI anticancer screen, dose series, 48 h

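Compound exposure: 48 hours, 5 concentrations, 96-well plates. Abbreviation: GI50, concentration required for 50% inhibition of growth.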 The source made the active and inactive calls. Cut-off read from the data, not from the text of the source: active = GI50 up to about 1.1 µM and inactive = higher.

For the molecule `COc1cc2c(c(OC)c1OC)-c1ccc(SC)c(=O)cc1C(CC(=O)Oc1cccc([N+](=O)[O-])c1)C2` (stereo unspecified), the GI50 in the assay with XF498 is 0.74 µM (active); with HOP-18, > 100 µM (inactive); in the assay with DMS-273, 0.364 µM (active); in the assay on KM-20L2, 0.585 µM (active); with SNB-78, 0.481 µM (active); with DMS-114, 0.312 µM (active). In addition, the GI50 was 0.502 µM (active) in the assay on RXF 631 and 0.933 µM (active) with DLD-1.
In the case of `O=C(O/C(=C(/N=N/c1ccccc1)c1ccccc1)c1ccccc1)c1ccccc1`, the GI50 in the assay with XF498 is > 100 µM (inactive); with HOP-18, > 100 µM (inactive); with KM-20L2, > 100 µM (inactive); in the assay on SNB-78, > 100 µM (inactive); with DMS-114, > 100 µM (inactive); in the assay on RXF 631 it was 16.7 µM (inactive). Moreover, the GI50 in the assay on DLD-1 was 89.1 µM (inactive).
With `[C-]#[N+]C(C)(C)C[C@H]1CC(C)C2CCC(C)C3([N+]#[C-])CCC(=C)C1[C@H]23` (stereo partly specified), the GI50 is 2.62 µM (inactive) in the assay on XF498; 0.046 µM (active) in the assay with HOP-18; 0.286 µM (active) in the assay on DMS-273; 5.36 µM (inactive) with KM-20L2; 0.249 µM (active) in the assay on SNB-78; 1.86 µM (inactive) in the assay with RXF 631. In addition, in the assay with DLD-1, the GI50 was 0.269 µM (active).
With `CCN(CC)c1ccc2c(c1)Oc1ccc(N(CC)CC)cc1C21Oc2ccccc2-c2c1c1ccccc1n2CC` (stereo unspecified), the GI50 in the assay with XF498 was 1.06 µM (active); in the assay with HOP-18, 0.614 µM (active); in the assay with DMS-273, 3.4 µM (inactive); in the assay on KM-20L2, 0.875 µM (active); in the assay on SNB-78 it was 7.36 µM (inactive); with DMS-114, 0.506 µM (active). Also, the GI50 was 6.1 µM (inactive) in the assay with RXF 631 and 3.48 µM (inactive) in the assay with DLD-1.
With `NNC(=O)N/N=C1\C(=O)N(c2nccs2)C(=O)C(=O)C1c1nc2ccccc2s1` (stereo unspecified), the GI50 is > 100 µM (inactive) in the assay on XF498; 7.19 µM (inactive) in the assay with HOP-18; > 100 µM (inactive) with DMS-273; > 100 µM (inactive) in the assay with KM-20L2; > 100 µM (inactive) in the assay with SNB-78; > 100 µM (inactive) with DMS-114. Moreover, the GI50 with RXF 631 and in the assay on DLD-1 was > 100 µM (inactive) each time.
Take `CC1CCC[P+](Cc2ccccc2)(c2ccccc2)CC1` (stereo unspecified): the GI50 in the assay with XF498 was 21.4 µM (inactive); in the assay on HOP-18, 0.078 µM (active); in the assay with DMS-273 it was 33.6 µM (inactive); in the assay on KM-20L2, 50.6 µM (inactive); in the assay with SNB-78, 48.3 µM (inactive); in the assay on DMS-114, 18.5 µM (inactive). Also, the GI50 with RXF 631 and in the assay on DLD-1 was > 100 µM (inactive) each time.
